These are literature values, as cited in patent US6727104B2, “Microcolumn chromatographic immunoassays” (The Board of Regents of the University of Nebraska, priority 2001, dated 2004).

Like-named read-outs stand apart in the source and are kept apart here.

Data set [1] addresses Thyroxine-Binding Prealbumin (Homo sapiens, UniProt P02766).
The target of data set [2] is T1, Thyroxine-Binding Globulin (Homo sapiens, UniProt P05543).
T1 sequence (P05543 21-415): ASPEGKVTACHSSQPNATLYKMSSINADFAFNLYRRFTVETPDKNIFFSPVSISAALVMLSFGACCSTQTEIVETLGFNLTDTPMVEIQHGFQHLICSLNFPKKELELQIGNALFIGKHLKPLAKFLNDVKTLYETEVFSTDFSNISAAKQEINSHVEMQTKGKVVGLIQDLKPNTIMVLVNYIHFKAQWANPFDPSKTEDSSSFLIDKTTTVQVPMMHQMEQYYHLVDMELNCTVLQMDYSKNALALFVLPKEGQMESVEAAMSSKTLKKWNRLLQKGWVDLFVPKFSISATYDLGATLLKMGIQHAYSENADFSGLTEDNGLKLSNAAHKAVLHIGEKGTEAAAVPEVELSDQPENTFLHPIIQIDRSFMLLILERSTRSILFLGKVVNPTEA
The settings on record: T4 Binding Site.

For `N[C@@H](Cc1cc(I)c(Oc2cc(I)c(O)c(I)c2)c(I)c1)C(=O)O` [T4, L-Thyroxine], the Ka was 1e+07 M⁻¹ in data set [1] (High Affinity Site), 300000 M⁻¹ in data set [1] (Low Affinity Site) and 1e+10 M⁻¹ in data set [2].
